Reference: PubChem BioAssay AID1963422 (Molecular Pharmacology Branch, DTP, NCI, 2024)
Values joined by “and” are separate entries in the source; they are usually repeats but may differ in a detail not shown here. Identical values can stand only once.

System: 463943-066-T-J2-PDC complex spheroid growth
Assay: Anticancer human tumor 463943-066-T-J2-PDC patient-derived colon adenocarcinoma cell line growth inhibition [Asc]
Conditions: for viability, T/C: stronger effect = lower value
Outline: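 Complex solid-tumor spheroids incorporating human endothelial and mesenchymal stem cells received single agents or combinations over half-log dilution ranges anchored to clinical Cmax.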
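Also: compound exposure lasted 7 days.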
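For viability, T/C in this document: 100% = DMSO vehicle control wells.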

C=C(F)C(=O)N1CCN(c2nc(OCC3CCCN3C)nc3c2CCN(c2cccc4cccc(Cl)c24)C3)CC1CC#N (stereo not given) + CCN1C(C(=O)NC23CCC(C(=O)O)(CC2)CC3)C(c2cccc(Cl)c2F)C2(C(=O)Nc3cc(Cl)ccc32)C12CCCCC2 gave an IC50 (curve of first compound, second compound 0.00949 µM) of 6.05 µM, an IC50 (curve of first compound, second compound 0.03 µM) of 6.36 µM and an IC50 (curve of first compound, second compound 0.0949 µM) of 6.24 µM. The IC50 (curve of first compound, second compound 0.3 µM) was 6.01 µM, the IC50 (curve of first compound, second compound 0.949 µM) was 6.26 µM and the IC50 (curve of first compound, second compound 3 µM) was 5.8 µM. It also gave a viability, T/C (second compound 0.00949 µM, first compound 0.0316 µM) of 97.4%, a viability, T/C (second compound 0.00949 µM, first compound 0.1 µM) of 92.9% and a viability, T/C (second compound 0.00949 µM, first compound 0.316 µM) of 103%. For the same molecule, the viability, T/C (second compound 0.00949 µM, first compound 1 µM) was 104%, the viability, T/C (second compound 0.00949 µM, first compound 3.16 µM) was 91.9% and the viability, T/C (second compound 0.00949 µM, first compound 10 µM) was 17.2%. The viability, T/C (second compound 0.03 µM, first compound 0.0316 µM) was 93.4%, the viability, T/C (second compound 0.03 µM, first compound 0.1 µM) was 93.9% and the viability, T/C (second compound 0.03 µM, first compound 0.316 µM) was 93.1%. For the same molecule, the viability, T/C (second compound 0.03 µM, first compound 1 µM) was 101%, the viability, T/C (second compound 0.03 µM, first compound 3.16 µM) was 97.3% and the viability, T/C (second compound 0.03 µM, first compound 10 µM) was 20.3%. The viability, T/C (second compound 0.0949 µM, first compound 0.0316 µM) was 91.7%, the viability, T/C (second compound 0.0949 µM, first compound 0.1 µM) was 87.3% and the viability, T/C (second compound 0.0949 µM, first compound 0.316 µM) was 88.3%. The viability, T/C (second compound 0.0949 µM, first compound 1 µM) was 97.8%, the viability, T/C (second compound 0.0949 µM, first compound 3.16 µM) was 87.3% and the viability, T/C (second compound 0.0949 µM, first compound 10 µM) was 23.9%. The viability, T/C (second compound 0.3 µM, first compound 0.0316 µM) was 82%, the viability, T/C (second compound 0.3 µM, first compound 0.1 µM) was 85.4% and the viability, T/C (second compound 0.3 µM, first compound 0.316 µM) was 83.6%. It also gave a viability, T/C (second compound 0.3 µM, first compound 1 µM) of 90.5%, a viability, T/C (second compound 0.3 µM, first compound 3.16 µM) of 79.1% and a viability, T/C (second compound 0.3 µM, first compound 10 µM) of 26.3%. It also gave a viability, T/C (second compound 0.949 µM, first compound 0.0316 µM) of 71.9%, a viability, T/C (second compound 0.949 µM, first compound 0.1 µM) of 81% and a viability, T/C (second compound 0.949 µM, first compound 0.316 µM) of 76%. It also gave a viability, T/C (second compound 0.949 µM, first compound 1 µM) of 83.6%, a viability, T/C (second compound 0.949 µM, first compound 3.16 µM) of 78.1% and a viability, T/C (second compound 0.949 µM, first compound 10 µM) of 30.8%. For the same molecule, the viability, T/C (second compound 3 µM, first compound 0.0316 µM) was 70.8%, the viability, T/C (second compound 3 µM, first compound 0.1 µM) was 71.5% and the viability, T/C (second compound 3 µM, first compound 0.316 µM) was 74%. For the same molecule, the viability, T/C (second compound 3 µM, first compound 1 µM) was 78.9%, the viability, T/C (second compound 3 µM, first compound 3.16 µM) was 77.5% and the viability, T/C (second compound 3 µM, first compound 10 µM) was 28%.
For Cc1c(S(C)(=O)=O)c(-c2cc(F)cc(N3CCN(c4ccc(NS(=O)(=O)c5ccc(NC(CCN6CCC(C(=O)OCCCP(=O)(O)O)CC6)CSc6ccccc6)c(S(=O)(=O)C(F)(F)F)c5)cc4)CC3)c2)c(-c2ccc(Cl)cc2)n1C(C)C (stereo not given), the viability, T/C (compound 0.0316 µM) was 96.2% [middle of 7 runs], the viability, T/C (compound 0.1 µM) was 94.8% [middle of 7 runs] and the viability, T/C (compound 0.316 µM) was 87.8% [middle of 7 runs]. For the same molecule, the viability, T/C (compound 1 µM) was 78% [middle of 7 runs], the viability, T/C (compound 3.16 µM) was 62.6% [middle of 7 runs] and the viability, T/C (compound 10 µM) was 56.5% [middle of 7 runs]. The IC50 (compound alone, run of 11/07/2022) was over 10 µM.
Work on C#Cc1c(F)ccc2cc(O)cc(-c3ncc4c(N5CC6CCC(C5)N6)nc(OCC56CCCN5CC(F)C6)nc4c3F)c12 (stereo not given) + CNC(C)C(=O)NC1CN(S(=O)(=O)c2cccc(S(=O)(=O)N3CCC4CCC(C(=O)NC(c5ccccc5)c5ccccc5)N4C(=O)C(NC(=O)C(C)NC)C3)c2)CCC2CCC(C(=O)NC(c3ccccc3)c3ccccc3)N2C1=O yielded an IC50 (curve of first compound, second compound 0.00316 µM) of over 10 µM, an IC50 (curve of first compound, second compound 0.01 µM) of over 10 µM and an IC50 (curve of first compound, second compound 0.0316 µM) of over 10 µM. It also gave an IC50 (curve of first compound, second compound 0.1 µM) of over 10 µM, an IC50 (curve of first compound, second compound 0.316 µM) of over 10 µM and an IC50 (curve of first compound, second compound 1 µM) of over 10 µM. It also gave a viability, T/C (second compound 0.00316 µM, first compound 0.0316 µM) of 105%, a viability, T/C (second compound 0.00316 µM, first compound 0.1 µM) of 103% and a viability, T/C (second compound 0.00316 µM, first compound 0.316 µM) of 94.3%. The viability, T/C (second compound 0.00316 µM, first compound 1 µM) was 123%, the viability, T/C (second compound 0.00316 µM, first compound 3.16 µM) was 94% and the viability, T/C (second compound 0.00316 µM, first compound 10 µM) was 99.5%. The viability, T/C (second compound 0.01 µM, first compound 0.0316 µM) was 101%, the viability, T/C (second compound 0.01 µM, first compound 0.1 µM) was 99.9% and the viability, T/C (second compound 0.01 µM, first compound 0.316 µM) was 97.4%. It also gave a viability, T/C (second compound 0.01 µM, first compound 1 µM) of 102%, a viability, T/C (second compound 0.01 µM, first compound 3.16 µM) of 99.3% and a viability, T/C (second compound 0.01 µM, first compound 10 µM) of 101%. The viability, T/C (second compound 0.0316 µM, first compound 0.0316 µM) was 102%, the viability, T/C (second compound 0.0316 µM, first compound 0.1 µM) was 101% and the viability, T/C (second compound 0.0316 µM, first compound 0.316 µM) was 94.3%. The viability, T/C (second compound 0.0316 µM, first compound 1 µM) was 103%, the viability, T/C (second compound 0.0316 µM, first compound 3.16 µM) was 100% and the viability, T/C (second compound 0.0316 µM, first compound 10 µM) was 91.3%. For the same molecule, the viability, T/C (second compound 0.1 µM, first compound 0.0316 µM) was 109%, the viability, T/C (second compound 0.1 µM, first compound 0.1 µM) was 92% and the viability, T/C (second compound 0.1 µM, first compound 0.316 µM) was 98%. For the same molecule, the viability, T/C (second compound 0.1 µM, first compound 1 µM) was 94.6%, the viability, T/C (second compound 0.1 µM, first compound 3.16 µM) was 101% and the viability, T/C (second compound 0.1 µM, first compound 10 µM) was 85.7%. The viability, T/C (second compound 0.316 µM, first compound 0.0316 µM) was 88%, the viability, T/C (second compound 0.316 µM, first compound 0.1 µM) was 94.2% and the viability, T/C (second compound 0.316 µM, first compound 0.316 µM) was 89.6%. It also gave a viability, T/C (second compound 0.316 µM, first compound 1 µM) of 93.3%, a viability, T/C (second compound 0.316 µM, first compound 3.16 µM) of 100% and a viability, T/C (second compound 0.316 µM, first compound 10 µM) of 81.8%. For the same molecule, the viability, T/C (second compound 1 µM, first compound 0.0316 µM) was 90.7%, the viability, T/C (second compound 1 µM, first compound 0.1 µM) was 85.6% and the viability, T/C (second compound 1 µM, first compound 0.316 µM) was 80.8%. For the same molecule, the viability, T/C (second compound 1 µM, first compound 1 µM) was 87.7%, the viability, T/C (second compound 1 µM, first compound 3.16 µM) was 85.6% and the viability, T/C (second compound 1 µM, first compound 10 µM) was 72%.
In the case of C=CC(=O)N1CCN(c2nc(=O)n(-c3c(C)ccnc3C(C)C)c3nc(-c4c(O)cccc4F)c(F)cc23)C(C)C1 (stereo not given), the viability, T/C (compound 0.0316 µM) is reported as 102% and 108%, the viability, T/C (compound 0.1 µM) is reported as 90.1% and 88.6% and the viability, T/C (compound 0.316 µM) is reported as 93% and 101%. The viability, T/C (compound 1 µM) was 100% and 110%, the viability, T/C (compound 3.16 µM) was 102% and 104% and the viability, T/C (compound 10 µM) was 93.7% and 107%. The IC50 (curve of compound) was over 10 µM.
For NC(=O)C(=Cn1cnc(-c2cc(C(F)(F)F)cc(C(F)(F)F)c2)n1)c1cncnc1, the viability, T/C (compound 0.000949 µM) was 96.5% and 87.3% and 115%, the viability, T/C (compound 0.003 µM) was 84.7% and 83.7% and 102% and the viability, T/C (compound 0.00949 µM) was 92.6% and 85.6% and 96.3%. For the same molecule, the viability, T/C (compound 0.03 µM) was 87.8% and 84.8% and 87.7%, the viability, T/C (compound 0.0949 µM) was 83.6% and 81.3% and 79.4% and the viability, T/C (compound 0.3 µM) was 73.8% and 73.3% and 60.4%. For the same molecule, the IC50 (curve of compound) was over 0.3 µM.
